Measurements taken from patent US5994349A, “3-carboalkoxy-2, 3-dihydro-1H-phenothiazin-4[10H]-one derivatives” (priority 1997, dated 1999).
Read-outs that look alike come from different tables or passages of the source.

Columns and labels:
neurotoxicity (rotorod) [1] = assay: rotorod test for neurological toxicity (Tox), Phase I, mice ip; assay type: in vivo, male Carworth Farms No. 1 (CF1) mice
Method in brief: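 Neurological toxicity was assessed in Phase I with the rotorod test in male Carworth Farms No. 1 (CF1) mice weighing 18-25 g, dosed intraperitoneally. Each mouse was set on a knurled plastic rod of 1 inch diameter turning at 6 rpm, a speed normal mice can stay on indefinitely. Motor impairment was recorded 30 min and 4 h after dosing, sometimes also at 2 h and 6 h.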

[2] = tested on: maximal electroshock seizures; assay: maximal electroshock (MES) test, oral rat (Phase VIA/VIB); assay type: in vivo, male Sprague-Dawley rats; details: 30 mg/kg
neurotoxicity (rotorod) [3] = assay: rotorod toxicity, oral rat (Phase VIA/VIB); assay type: in vivo, male Sprague-Dawley rats; details: rat oral, 30 mg/kg
Method in brief: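 Male Sprague-Dawley rats (100-150 g) dosed orally. Neurotoxicity scored by ability to stay on a 1 inch diameter knurled plastic rod rotating at 6 rpm.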

[4] = tested on: pentylenetetrazol seizures; assay: subcutaneous pentylenetetrazol (scMet) test, Phase I, mice ip; assay type: in vivo, male Carworth Farms No. 1 (CF1) mice; details: Mus musculus, mice ip
[5] = stability in refluxing DMSO; assay type: physicochemical; details: refluxing DMSO for periods up to 40 min, forming 4m
Experimental: Without wishing to be held to any particular theory, when experimental conditions for the final step are identical for each ester, (i.e., 40 min reflux in DMSO), it is believed that the ter-butyl compound 4c (X=H) undergoes thermal decomposition to give 2,3-dihydro-1H-phenothiazin-4[10H]-one, 4d (X=H). Thermal decomposition of the desired phenothiazine 4c (X=H) to butylene and the b-keto acid (4, R=X=H) is suspected, followed by decarboxylation of the latter compound to 4d (X=H). This is substantiated by the formation of the 4c series by employing shorter reflux times in DMSO. […] Friary and coworkers have shown that 7c (R=C(CH3)3) is readily decarboxylated under acid-catalyzed conditions to form 7d (see Scheme III below). Friary, R. J.; Gilligan, J. M.; Szajewski, R. P.; Falci, K. J.; Franck, R. W. Heterocyclic syntheses via the intramolecular acylation of enamines derived from animo acids. J. Org. Chem. 1973, 38, 3487-3490. [drawing 7]

[6] = tested on: maximal electroshock seizures; assay: maximal electroshock (MES) test, Phase I, mice ip; assay type: in vivo, male Carworth Farms No. 1 (CF1) mice; details: Mus musculus
Method in brief: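 Male CF1 mice (18-25 g) dosed ip at 30, 100 and 300 mg/kg in 0.5% methylcellulose, tested 30 min and 4 h later (sometimes 2 h and 6 h). Corneal 60-cycle, 50 mA current for 0.2 s; protection = abolition of hind limb tonic extension, scored as protected/tested.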

[7] = 0.5 h, 30 min, read-out: scMet 30 min
[8] = 4 h, read-out: MES 4 h (converted)
[9] = 0.5 h, 30 min, read-out: MES 30 min (converted)

With `C[C@@H]1CC2=C(Sc3cc(Br)ccc3N2)C(=O)[C@H]1C(=O)OC(C)(C)C` (relative stereo) [Compound 4l, 7-Bromo-3-carbo-ter-butoxy-2-methyl-2,3-dihydro-1H-phenothiazin-4[10H]-one] the “Tox 30 min” value (neurotoxicity (rotorod) [1]; 10 mg/kg) was 0/4, the “Tox 30 min” value (neurotoxicity (rotorod) [1]; 30 mg/kg) was 0/4 and the “Tox 4 h” value (neurotoxicity (rotorod) [1]; 30 mg/kg) was 0/2. The “Tox 30 min” value (neurotoxicity (rotorod) [1]; 100 mg/kg) was 0/8, the “Tox 4 h” value (neurotoxicity (rotorod) [1]; 100 mg/kg) was 0/4 and the “Tox 30 min” value (neurotoxicity (rotorod) [1]; 300 mg/kg) was 0/4. For the same compound, the “Tox 4 h” value (neurotoxicity (rotorod) [1]; 300 mg/kg) was 0/2, the responders at 30 mg/kg ([2]; 0.25 h) was 50% and the responders at 30 mg/kg ([2]; 1.00 h) was 100%. For the same compound, the responders at 30 mg/kg ([2]; 2.00 h) was 100%, the responders at 30 mg/kg ([2]; 4.00 h) was 100% and the responders at 30 mg/kg ([2]; 0.5 h, 0.50 h) was 50%. For the same compound, the Tox (neurotoxicity (rotorod) [3]; 0.25 h) was 0/4, the Tox (neurotoxicity (rotorod) [3]; 0.50 h) was 0/4 and the Tox (neurotoxicity (rotorod) [3]; 1.00 h) was 0/4. The Tox (neurotoxicity (rotorod) [3]; 2.00 h) was 0/4, the Tox (neurotoxicity (rotorod) [3]; 4.00 h) was 0/4 and the responders at 30 mg/kg [4, 7] was 0%. The responders at 100 mg/kg [4, 7] was 0%, the responders at 300 mg/kg ([4]; 0.5 h, 30 min, read-out: scMet 30 min (converted)) was 33.3% and the responders at 30 mg/kg ([4]; 4 h, read-out: scMet 4 h) was 0%. For the same compound, the responders at 100 mg/kg ([4]; 4 h, read-out: scMet 4 h) was 0%, the responders at 300 mg/kg ([4]; 4 h, read-out: scMet 4 h (converted)) was 0% and the “stability in refluxing DMSO” value [5] was “lability of the 3-carbo-ter butoxy substituent”. For the same compound, the responders at 30 mg/kg ([6]; 4 h, read-out: MES 4 h) was 0%, the responders at 100 mg/kg [6, 8] was 66.7% and the responders at 300 mg/kg [6, 8] was 100%. For the same compound, the responders at 3 mg/kg ([6]; 0.5 h, 3 mg/kg, 30 min) was 0%, the responders at 10 mg/kg ([6]; 0.5 h, 10 mg/kg, 30 min, read-out: MES 30 min) was 0% and the responders at 30 mg/kg [6, 9] was 100%. For the same compound, the responders at 100 mg/kg [6, 9] was 100% and the responders at 300 mg/kg [6, 9] was 100%.
